# Results published in ChEMBL document CHEMBL1201862, “PubChem BioAssay data set” (2004).
#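 The compound was tested at five concentrations on cells cultured in 96-well plates, with a 48-hour exposure period. The concentration for 50% growth inhibition is given as GI50.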 The source made the active and inactive calls. Cut-off read from the data, not from the text of the source: active = GI50 up to about 1.1 µM and inactive = higher.
# Experiments:
# Assay in all cases: NCI tumour cell line growth inhibition, 48 h
# [1] = test system: MDA-N
# [2] = test system: SN12C
# [3] = test system: SK-MEL-28
# [4] = test system: OVCAR-4
# [5] = test system: MDA-MB-435
# [6] = test system: PC-3
# [7] = test system: A549
# [8] = test system: COLO 205
# [9] = test system: Hs-578T
# [10] = test system: SK-MEL-5
# [11] = test system: KM12
# [12] = test system: SW-620
# [13] = test system: M14
# [14] = test system: UO-31
# [15] = test system: NCI-H23
# [16] = test system: SK-MEL-2
# [17] = test system: HCT-116
# [18] = test system: BT-549
# [19] = test system: CCRF-CEM
# [20] = test system: HCT-15
# [21] = test system: OVCAR-5
# [22] = test system: RXF 393
# [23] = test system: SNB-19
# [24] = test system: RPMI-8226
# [25] = test system: SF-295
# [26] = test system: K562
# [27] = test system: Malme-3M
# [28] = test system: NCI-H460
# [29] = test system: EKVX
# [30] = test system: NCI/ADR-RES
# [31] = test system: U-251
# [32] = test system: ACHN
# [33] = test system: UACC-257
# [34] = test system: TK-10
# [35] = test system: OVCAR-8
# [36] = test system: NCI-H522
# [37] = test system: NCI-H226
# [38] = test system: T47D
# [39] = test system: LOX IMVI
# [40] = test system: HOP-92
# [41] = test system: OVCAR-3
# [42] = test system: CAKI-1
# [43] = test system: HT-29
# [44] = test system: HL-60
# [45] = test system: HOP-62
# [46] = test system: MCF7
# [47] = test system: MOLT-4
# [48] = test system: UACC-62
# [49] = test system: IGROV-1
# [50] = test system: SF-268
# [51] = test system: MDA-MB-231
# [52] = test system: DU-145
# [53] = test system: 786-0
# [54] = test system: A498
# [55] = test system: SF-539
# [56] = test system: SNB-75
# [57] = test system: SK-OV-3
# [58] = test system: HCC 2998
compound,measurement,setting,value
CCc1n[nH]c(=O)n1N=C(c1ccccc1)c1ccccc1,GI50,[1],> 100 µM (inactive)
same,GI50,[2],> 100 µM (inactive)
same,GI50,[3],> 100 µM (inactive)
same,GI50,[4],> 100 µM (inactive)
same,GI50,[5],> 100 µM (inactive)
same,GI50,[6],> 100 µM (inactive)
same,GI50,[7],> 100 µM (inactive)
same,GI50,[8],> 100 µM (inactive)
same,GI50,[9],> 100 µM (inactive)
same,GI50,[10],> 100 µM (inactive)
same,GI50,[11],> 100 µM (inactive)
same,GI50,[12],> 100 µM (inactive)
same,GI50,[13],> 100 µM (inactive)
same,GI50,[14],> 100 µM (inactive)
same,GI50,[15],> 100 µM (inactive)
same,GI50,[16],> 100 µM (inactive)
same,GI50,[17],> 100 µM (inactive)
same,GI50,[18],> 100 µM (inactive)
same,GI50,[19],> 100 µM (inactive)
same,GI50,[20],> 100 µM
same,GI50,[21],58.1 µM (inactive)
same,GI50,[22],> 100 µM (inactive)
same,GI50,[23],> 100 µM (inactive)
same,GI50,[24],> 100 µM (inactive)
same,GI50,[25],> 100 µM (inactive)
same,GI50,[26],> 100 µM (inactive)
same,GI50,[27],> 100 µM (inactive)
same,GI50,[28],> 100 µM (inactive)
same,GI50,[29],32 µM (inactive)
same,GI50,[30],> 100 µM (inactive)
same,GI50,[31],> 100 µM (inactive)
same,GI50,[32],> 100 µM (inactive)
same,GI50,[33],> 100 µM (inactive)
same,GI50,[34],> 100 µM (inactive)
same,GI50,[35],> 100 µM (inactive)
same,GI50,[36],> 100 µM (inactive)
same,GI50,[37],> 100 µM (inactive)
same,GI50,[38],> 100 µM (inactive)
same,GI50,[39],> 100 µM (inactive)
same,GI50,[40],> 100 µM (inactive)
same,GI50,[41],> 100 µM (inactive)
same,GI50,[42],> 100 µM (inactive)
same,GI50,[43],> 100 µM (inactive)
same,GI50,[44],> 100 µM (inactive)
same,GI50,[45],> 100 µM (inactive)
same,GI50,[46],> 100 µM (inactive)
same,GI50,[47],> 100 µM (inactive)
same,GI50,[48],> 100 µM (inactive)
same,GI50,[49],> 100 µM (inactive)
same,GI50,[50],> 100 µM (inactive)
same,GI50,[51],> 100 µM (inactive)
same,GI50,[52],> 100 µM (inactive)
same,GI50,[53],> 100 µM (inactive)
same,GI50,[54],> 100 µM (inactive)
CC(C(=O)NCNC(=O)c1ccccc1)C(=O)Nc1ccccc1 (configuration not stated),GI50,[1],> 100 µM (inactive)
same,GI50,[2],> 100 µM (inactive)
same,GI50,[5],> 100 µM (inactive)
same,GI50,[6],> 100 µM (inactive)
same,GI50,[7],> 100 µM (inactive)
same,GI50,[8],> 100 µM (inactive)
same,GI50,[9],> 100 µM (inactive)
same,GI50,[10],> 100 µM (inactive)
same,GI50,[11],> 100 µM (inactive)
same,GI50,[12],> 100 µM (inactive)
same,GI50,[13],> 100 µM (inactive)
same,GI50,[14],> 100 µM (inactive)
same,GI50,[15],> 100 µM (inactive)
same,GI50,[16],> 100 µM (inactive)
same,GI50,[17],> 100 µM (inactive)
same,GI50,[18],> 100 µM (inactive)
same,GI50,[19],> 100 µM (inactive)
same,GI50,[20],> 100 µM
same,GI50,[21],> 100 µM (inactive)
same,GI50,[22],> 100 µM (inactive)
same,GI50,[23],> 100 µM (inactive)
same,GI50,[24],> 100 µM (inactive)
same,GI50,[25],> 100 µM (inactive)
same,GI50,[27],> 100 µM (inactive)
same,GI50,[28],> 100 µM (inactive)
same,GI50,[29],> 100 µM (inactive)
same,GI50,[30],> 100 µM (inactive)
same,GI50,[31],> 100 µM (inactive)
same,GI50,[32],> 100 µM (inactive)
same,GI50,[33],> 100 µM (inactive)
same,GI50,[34],> 100 µM (inactive)
same,GI50,[35],> 100 µM (inactive)
same,GI50,[36],> 100 µM (inactive)
same,GI50,[37],> 100 µM (inactive)
same,GI50,[38],> 100 µM (inactive)
same,GI50,[40],> 100 µM (inactive)
same,GI50,[55],> 100 µM (inactive)
same,GI50,[42],> 100 µM (inactive)
same,GI50,[43],> 100 µM (inactive)
same,GI50,[56],> 100 µM (inactive)
same,GI50,[44],> 100 µM (inactive)
same,GI50,[46],> 100 µM (inactive)
same,GI50,[47],> 10 µM (inactive)
same,GI50,[48],> 100 µM (inactive)
same,GI50,[49],> 100 µM (inactive)
same,GI50,[50],> 100 µM (inactive)
same,GI50,[57],> 100 µM (inactive)
same,GI50,[51],> 100 µM (inactive)
same,GI50,[52],> 100 µM (inactive)
same,GI50,[53],> 100 µM (inactive)
Cn1cnc2c(sc3nc4ccccc4n32)c1=N,GI50,[1],> 100 µM (inactive)
same,GI50,[3],> 100 µM (inactive)
same,GI50,[4],> 100 µM (inactive)
same,GI50,[5],> 100 µM (inactive)
same,GI50,[6],> 100 µM (inactive)
same,GI50,[7],> 100 µM (inactive)
same,GI50,[8],> 100 µM (inactive)
same,GI50,[9],42.7 µM (inactive)
same,GI50,[10],> 100 µM (inactive)
same,GI50,[12],> 100 µM (inactive)
same,GI50,[13],> 100 µM (inactive)
same,GI50,[14],> 100 µM (inactive)
same,GI50,[15],> 100 µM (inactive)
same,GI50,[16],> 100 µM (inactive)
same,GI50,[17],> 100 µM (inactive)
same,GI50,[18],> 100 µM (inactive)
same,GI50,[19],> 100 µM (inactive)
same,GI50,[20],> 100 µM
same,GI50,[21],> 100 µM (inactive)
same,GI50,[22],> 100 µM (inactive)
same,GI50,[23],> 100 µM (inactive)
same,GI50,[24],> 100 µM (inactive)
same,GI50,[25],68.1 µM (inactive)
same,GI50,[27],> 100 µM (inactive)
same,GI50,[29],52.2 µM (inactive)
same,GI50,[30],> 100 µM (inactive)
same,GI50,[31],> 100 µM (inactive)
same,GI50,[32],> 100 µM (inactive)
same,GI50,[33],> 100 µM (inactive)
same,GI50,[34],> 100 µM (inactive)
same,GI50,[35],41.5 µM (inactive)
same,GI50,[37],> 100 µM (inactive)
same,GI50,[38],> 100 µM (inactive)
same,GI50,[39],> 100 µM (inactive)
same,GI50,[40],> 100 µM (inactive)
same,GI50,[55],> 100 µM (inactive)
same,GI50,[41],> 100 µM (inactive)
same,GI50,[42],> 100 µM (inactive)
same,GI50,[58],17.6 µM (inactive)
same,GI50,[43],> 100 µM (inactive)
same,GI50,[56],11.2 µM (inactive)
same,GI50,[44],> 100 µM (inactive)
same,GI50,[45],> 100 µM (inactive)
same,GI50,[46],> 100 µM (inactive)
same,GI50,[47],> 100 µM (inactive)
same,GI50,[48],> 100 µM (inactive)
same,GI50,[49],22.6 µM (inactive)
same,GI50,[50],> 100 µM (inactive)
same,GI50,[57],> 100 µM (inactive)
same,GI50,[51],> 100 µM (inactive)
same,GI50,[52],> 100 µM (inactive)
same,GI50,[53],> 100 µM (inactive)
same,GI50,[54],> 100 µM (inactive)
